The values that follow come from the supplement of paper PMC10307832.

Holding throughout (assay): relative viability (nuclei count vs DMSO), 5 days (fraction); higher = more cells survive
Compound in experiment [1]: CN1C=C(C2=CC=CC=C21)/C=C\3/C4=C(C=CC=N4)NC3=O + Nc1nc2[nH]cc(CCc3ccc(C(=O)N[C@@H](CCC(=O)O)C(=O)O)cc3)c2c(=O)[nH]1 [Pemetrexed] (partner 0.2 µM)
In short, it runs like this: (§1)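 The day after seeding in 1536-well plates, lung cancer cell lines were treated by pin tool with a single drug, or with a fixed anchor-drug dose together with five library-drug doses (not always all listed) in √10 steps. After 5 days, a combined fix-and-stain solution (final 0.05% Triton X-100, 1% formaldehyde, 1 ug/ml Hoechst) was added. Nuclei counted on 4× images gave relative viability as treated counts over vehicle counts, reported as the median of duplicate plates.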

Compound in experiment [2]: CC(=O)Nc1cccc(-n2c(=O)n(C3CC3)c(=O)c3c(Nc4ccc(I)cc4F)n(C)c(=O)c(C)c32)c1 [Trametinib] + Cc1nc(NC(=O)N2CCC[C@H]2C(N)=O)sc1-c1ccnc(C(C)(C)C(F)(F)F)c1 [Alpelisib] (partner 2 µM)
In short, it runs like this: as §1

Compound in experiment [3]: CC(=O)Nc1cccc(-n2c(=O)n(C3CC3)c(=O)c3c(Nc4ccc(I)cc4F)n(C)c(=O)c(C)c32)c1 [Trametinib] + COc1cc2c(Oc3ccc(NC(=O)C4(C(=O)Nc5ccc(F)cc5)CC4)cc3F)ccnc2cc1OCCCN1CCOCC1 [Foretinib] (partner 0.25 µM)
In short, it runs like this:
as §1

Compound in experiment [4]: CC(=O)Nc1cccc(-n2c(=O)n(C3CC3)c(=O)c3c(Nc4ccc(I)cc4F)n(C)c(=O)c(C)c32)c1 [Trametinib] + CC1(C)CCC(c2ccc(Cl)cc2)=C(CN2CCN(c3ccc(C(=O)NS(=O)(=O)c4ccc(N[C@H](CCN5CCOCC5)CSc5ccccc5)c(S(=O)(=O)C(F)(F)F)c4)cc3)CC2)C1 [Navitoclax] (partner 0.5 µM)
Summed up: as §1

In the case of NCI-H1648, the relative viability in experiment [1] (first compound 0.02 µM) came out at 0.729; in experiment [1] (first compound 0.06325 µM) it was 0.777; in experiment [1] (first compound 0.2 µM), 0.922; in experiment [1] (first compound 0.6325 µM), 0.691; in experiment [1] (first compound 2 µM), 0.739.

Consider NCI-H358, for which the relative viability is 0.172 in experiment [1] (first compound 0.02 µM); 0.15 in experiment [1] (first compound 0.06325 µM); 0.167 in experiment [1] (first compound 0.2 µM); 0.172 in experiment [1] (first compound 0.6325 µM); 0.164 in experiment [1] (first compound 2 µM); 0.563 in experiment [2] (first compound 0.0025 µM). Further, the relative viability in experiment [2] (first compound 0.007906 µM) came to 0.373; in experiment [2] (first compound 0.025 µM), 0.277; in experiment [2] (first compound 0.07906 µM), 0.269; in experiment [2] (first compound 0.25 µM), 0.248; in experiment [3] (first compound 0.0025 µM), 0.49; in experiment [3] (first compound 0.007906 µM), 0.302. Besides, the relative viability in experiment [3] (first compound 0.025 µM) worked out at 0.264; in experiment [3] (first compound 0.07906 µM) it was 0.18; in experiment [3] (first compound 0.25 µM), 0.166.

As for NCI-H1563, the relative viability was 0.827 in experiment [1] (first compound 0.02 µM); 0.694 in experiment [1] (first compound 0.06325 µM); 0.703 in experiment [1] (first compound 0.2 µM); 0.665 in experiment [1] (first compound 0.6325 µM); 0.752 in experiment [1] (first compound 2 µM); 0.94 in experiment [2] (first compound 0.0025 µM). In addition, the relative viability in experiment [2] (first compound 0.007906 µM) is 0.985; in experiment [2] (first compound 0.025 µM), 0.992; in experiment [2] (first compound 0.07906 µM) it was 0.968; in experiment [2] (first compound 0.25 µM), 0.628; in experiment [3] (first compound 0.0025 µM) it was 0.953; in experiment [3] (first compound 0.007906 µM), 0.815. Further, the relative viability was determined as 0.807 in experiment [3] (first compound 0.025 µM), 0.804 in experiment [3] (first compound 0.07906 µM) and 0.694 in experiment [3] (first compound 0.25 µM).

For the cell line LCLC-103H, the relative viability in experiment [1] (first compound 0.02 µM) turned out to be 0.455; in experiment [1] (first compound 0.06325 µM) it was 0.455; in experiment [1] (first compound 0.2 µM) it was 0.483; in experiment [1] (first compound 0.6325 µM) it was 0.482; in experiment [1] (first compound 2 µM), 0.462; in experiment [2] (first compound 0.0025 µM), 0.974. For the same cell line, the relative viability in experiment [2] (first compound 0.007906 µM) was 0.875; in experiment [2] (first compound 0.025 µM), 0.665; in experiment [2] (first compound 0.07906 µM) it was 0.81; in experiment [2] (first compound 0.25 µM) it was 0.624; in experiment [3] (first compound 0.0025 µM), 0.745; in experiment [3] (first compound 0.007906 µM), 0.637. The relative viability came to 0.537 in experiment [3] (first compound 0.025 µM), 0.621 in experiment [3] (first compound 0.07906 µM) and 0.429 in experiment [3] (first compound 0.25 µM).

For NCI-H2342, the relative viability in experiment [1] (first compound 0.02 µM) worked out at 0.704; in experiment [1] (first compound 0.06325 µM), 0.747; in experiment [1] (first compound 0.2 µM), 0.736; in experiment [1] (first compound 0.6325 µM), 0.756; in experiment [1] (first compound 2 µM), 0.767; in experiment [3] (first compound 0.0025 µM) it was 1.05. The relative viability in experiment [3] (first compound 0.007906 µM) stood at 0.911; in experiment [3] (first compound 0.07906 µM), 0.908; in experiment [3] (first compound 0.25 µM) it was 0.997.

Take ChaGo-K-1: the relative viability in experiment [4] (first compound 0.0025 µM) came to 1.07; in experiment [4] (first compound 0.007906 µM) it was 0.803; in experiment [4] (first compound 0.025 µM), 1.08; in experiment [4] (first compound 0.07906 µM) it was 0.508; in experiment [4] (first compound 0.25 µM), 0.556; in experiment [1] (first compound 0.02 µM) it was 0.252. Also, the relative viability in experiment [1] (first compound 0.06325 µM) came to 0.255; in experiment [1] (first compound 0.2 µM) it was 0.241; in experiment [1] (first compound 0.6325 µM), 0.269; in experiment [1] (first compound 2 µM) it was 0.245; in experiment [3] (first compound 0.0025 µM), 0.805; in experiment [3] (first compound 0.007906 µM), 0.908. For the same cell line, the values for the relative viability in experiment [3] (first compound 0.025 µM), in experiment [3] (first compound 0.07906 µM) and in experiment [3] (first compound 0.25 µM) were 0.839, 0.839 and 0.687, respectively.

Calu-6: the relative viability in experiment [4] (first compound 0.0025 µM) came to 0.601; in experiment [4] (first compound 0.007906 µM), 0.295; in experiment [4] (first compound 0.025 µM), 0.177; in experiment [4] (first compound 0.07906 µM) it was 0.129; in experiment [4] (first compound 0.25 µM), 0.127; in experiment [2] (first compound 0.0025 µM), 0.974. Further, the relative viability in experiment [2] (first compound 0.007906 µM) came out at 0.414; in experiment [2] (first compound 0.025 µM) it was 0.231; in experiment [2] (first compound 0.07906 µM), 0.156; in experiment [2] (first compound 0.25 µM), 0.16; in experiment [3] (first compound 0.0025 µM), 0.835; in experiment [3] (first compound 0.007906 µM) it was 0.503. Also, the relative viability in experiment [3] (first compound 0.025 µM) was found to be 0.418; in experiment [3] (first compound 0.07906 µM) it was 0.12; in experiment [3] (first compound 0.25 µM), 0.131.

Regarding NCI-H1299, the relative viability is 1.04 in experiment [4] (first compound 0.0025 µM); 1.01 in experiment [4] (first compound 0.007906 µM); 0.896 in experiment [4] (first compound 0.025 µM); 0.887 in experiment [4] (first compound 0.07906 µM); 0.78 in experiment [4] (first compound 0.25 µM); 1.04 in experiment [2] (first compound 0.0025 µM). The relative viability in experiment [2] (first compound 0.007906 µM) amounted to 1.08; in experiment [2] (first compound 0.025 µM), 0.911; in experiment [2] (first compound 0.07906 µM), 0.799; in experiment [2] (first compound 0.25 µM), 0.744; in experiment [3] (first compound 0.0025 µM), 1.07; in experiment [3] (first compound 0.007906 µM) it was 1.2. The relative viability in experiment [3] (first compound 0.025 µM) came to 1.01; in experiment [3] (first compound 0.07906 µM) it was 0.794; in experiment [3] (first compound 0.25 µM), 0.481.

Turning to EBC-1, the relative viability in experiment [4] (first compound 0.0025 µM) worked out at 0.274; in experiment [4] (first compound 0.007906 µM), 0.218; in experiment [4] (first compound 0.025 µM), 0.157; in experiment [4] (first compound 0.07906 µM), 0.141; in experiment [4] (first compound 0.25 µM), 0.179; in experiment [2] (first compound 0.0025 µM) it was 0.901. The relative viability is 0.65 in experiment [2] (first compound 0.007906 µM); 0.313 in experiment [2] (first compound 0.025 µM); 0.21 in experiment [2] (first compound 0.07906 µM); 0.206 in experiment [2] (first compound 0.25 µM); 0.101 in experiment [3] (first compound 0.0025 µM); 0.0972 in experiment [3] (first compound 0.007906 µM). Moreover, the relative viability in experiment [3] (first compound 0.025 µM) turned out to be 0.0957; in experiment [3] (first compound 0.07906 µM) it was 0.0946; in experiment [3] (first compound 0.25 µM) it was 0.0905.

Regarding NCI-H650, the relative viability in experiment [1] (first compound 0.02 µM) came out at 0.934; in experiment [1] (first compound 0.06325 µM), 0.875; in experiment [1] (first compound 0.6325 µM), 0.805; in experiment [1] (first compound 2 µM), 0.918; in experiment [2] (first compound 0.0025 µM), 1.31; in experiment [2] (first compound 0.007906 µM), 1.42. Moreover, the relative viability in experiment [2] (first compound 0.025 µM) was found to be 1.38; in experiment [2] (first compound 0.07906 µM), 1.35; in experiment [2] (first compound 0.25 µM) it was 0.71; in experiment [3] (first compound 0.0025 µM), 1.1; in experiment [3] (first compound 0.007906 µM), 1.17; in experiment [3] (first compound 0.025 µM), 1.1. The relative viability came to 1.17 in experiment [3] (first compound 0.07906 µM) and 0.839 in experiment [3] (first compound 0.25 µM).
